22 compounds from patent US20120027720A1, “PEPTIDE CONJUGATES” (priority 2008, published 2012) can be followed below.

Common to all, as to assay type: cell-based
The test system of data set [1] is CaCo2 monolayers. Description: Epithelial flux of Lucifer Yellow through cell monolayer. The arrangement: key to Enhanced LY permeability: + indicates an enhancement of the permeability of the tight junctions were observed; − indicates no enhancement of permeability was observed. The following applies: for Enhanced LY permeability: Lucifer Yellow flux, Caco-2 monolayer. The gist of the method: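 Caco-2 cells (passage 40-60) grown 21-28 days on Transwell filters, equilibrated 30 min at 37 °C in HBSS-HEPES pH 7.4; Lucifer Yellow with test compound applied apically, n=3 filters. Basolateral samples at 60, 120, 180 min read by fluorescence at 485/535 nm against standard curve; TEER also measured.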

A further data set concerns IEC6 cells. The data set is described as follows: Real-Time Cell Electronic Sensing (RT-CES, ACEA) assay of cell morphology change. Also on record: key: + indicates an enhancement of the permeability of the tight junctions were observed; − indicates no enhancement of permeability was observed. To be noted: peptide at 5 mg/mL. An excerpt: Agonists of tight junctions can be identified by their ability to induce changes in morphology of cells in a monolayer of cells that comprise tight junctions. Such changes in the morphology of IEC6 cells may be measured using a Real-Time Cell Electronic Sensing protocol as described below.
Tight junction agonists can be identified using the following method an used in peptide conjugates of the invention:
Materials: cells: IEC6 passage 30-50, medium: DMEM 10% no calcium no magnesium, foetal bovine serum 0.1 unit per ml bovine insulin, buffers: phosphate buffered saline (PBS) no calcium no magnesium, trypsin: 0.25% porcine trypsin in HBSS no calcium no magnesium, flasks: 100×20 mm Tissue culture dish Falcon, plates: 16× E-Plate, machine: RT-CES™ 16× system (ACEA Biosciences, Inc., San Diego, Calif.)
Wash a 75 cm^2 flask of confluent IEC6 cells twice with 25 ml of PBS.
Add 2.5 ml of trypsin to the flask and place back in the incubator at 37° C.
Wash cells from the surface of the flask with 10 ml of serum containing media to quench the trypsin.
Pellet the cells by centrifugation at 1500 rpm for 5 minutes aspirate the media.
Resuspend the cell pellet in 10 ml of serum free media and centrifuge at 1500 rpm for 5 minutes aspirate the media and repeat for a total of 5 washes.
Take 100 μl of cells and mix with 100 μl of trypan blue.
Count the cells four times and use the average cell concentration.
Dilute the cells to 1×10^6 per ml in serum free media.
Add 100 μl of serum free media to each well of the ACEA plates to be used.
Insert the ACEA plate and press scan.
Run step 1 of the program to measure background.
Add 50 μl of cells to each well of the ACEA plate tap each slide of the plate 10 times and place the cells on the bench for 15 minutes to allow the cells to settle.
Insert the ACEA plate and run the scan step to check connections and run step 2-1 and 2-2 overnight.
Step 2-1 sample every 2 minutes 30 times.
Step 2-2 sample every 15 minutes 100 times.
The cell indices should be between 6-10 after the overnight run and should have reached a plateau.
Remove 100 μl of media carefully from each well.
Make up the compounds to be tested so that 50 μl contains 2× the desired final concentration.
Add 50 μl of compounds to the designated wells.
Scan the plate to check connections.
Step 3-1 sample every 2 minutes 30 times.
Step 3-2 sample every 15 minutes 100 times.

The test system of data set [2] is CaCo2 monolayers. The data set is described as follows: Trans Epithelial Electric Resistance (TEER) across cell monolayer. Also on record: key to Reduced TEER: + indicates an enhancement of the permeability of the tight junctions were observed; − indicates no enhancement of permeability was observed. To be noted: for Reduced TEER: Caco-2 monolayer. The gist of the method: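 Caco-2 cells, passage 40-60, grown 21-28 days on Transwell filters, equilibrated 30 min at 37° C in MHBSS pH 7.4. Test compound with Lucifer Yellow applied apically (n=3), incubated at 37° C with 50 RPM shaking; TEER measured at baseline and at 30, 60, 120 and 180 min.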

Where a SMILES comes first, the peptide text is derived from it. Where no end group is shown, it is not given here. [ ]: non-standard residue; d: D form. AllylGly = C=CC[C@H](N)C(=O)O

Turning to “2 (ACIGRL; not fully specified; printed as Ala-Cys-Ile-Gly-Arg-Leu) [compound 2]”, the “Enhanced LY permeability” value with CaCo2 monolayers [1] is recorded as “−”. Further, the “ACEA 5 mg/mL” value with IEC6 cells is “+”. Further, the “Reduced TEER” value in the data set on CaCo2 monolayers [2] is “−”.
As for “3 (FAIGRL; not fully specified; printed as Phe-Ala-Ile-Gly-Arg-Leu) [compound 3]”, the “Enhanced LY permeability” value in the data set on CaCo2 monolayers [1] is “−”. Further, the “ACEA 5 mg/mL” value in the data set with IEC6 cells is reported as “−”. The “Reduced TEER” value with CaCo2 monolayers [2] is “−”.
In the case of “11 (FCIG; also: peptide conjugate) [compound 11]”, the “ACEA 5 mg/mL” value in the data set with IEC6 cells is recorded as “+”. In addition, the “Reduced TEER” value in the data set with CaCo2 monolayers [2] is “−”.
Take “197 (K[AllylGly]IGRL-NH2; N-terminus assumed; SMILES C=CC[C@H](NC(=O)[C@@H](N)CCCCN)C(=O)N[C@H](C(=O)NCC(=O)N[C@@H](CCCNC(=N)N)C(=O)N[C@@H](CC(C)C)C(N)=O)[C@@H](C)CC) [compound 197]”: the “Enhanced LY permeability” value in the data set on CaCo2 monolayers [1] is reported as “−”. Besides, the “Reduced TEER” value in the data set with CaCo2 monolayers [2] is listed as “−”.
With “198 (A[AllylGly]IGRL-NH2; N-terminus assumed; SMILES C=CC[C@H](NC(=O)[C@H](C)N)C(=O)N[C@H](C(=O)NCC(=O)N[C@@H](CCCNC(=N)N)C(=O)N[C@@H](CC(C)C)C(N)=O)[C@@H](C)CC) [compound 198]”, the “Enhanced LY permeability” value in the data set on CaCo2 monolayers [1] is given as “−”. Also, in the data set on CaCo2 monolayers [2], the “Reduced TEER” value is “−”.
As for “199 (H[AllylGly]IGRL-NH2; N-terminus assumed; SMILES C=CC[C@H](NC(=O)[C@@H](N)Cc1c[nH]cn1)C(=O)N[C@H](C(=O)NCC(=O)N[C@@H](CCCNC(=N)N)C(=O)N[C@@H](CC(C)C)C(N)=O)[C@@H](C)CC) [compound 199]”, the “Enhanced LY permeability” value in the data set on CaCo2 monolayers [1] is “−”. Also, in the data set with CaCo2 monolayers [2], the “Reduced TEER” value was “−”.
“200 (P[AllylGly]IGRL-NH2; N-terminus assumed; SMILES C=CC[C@H](NC(=O)[C@@H]1CCCN1)C(=O)N[C@H](C(=O)NCC(=O)N[C@@H](CCCNC(=N)N)C(=O)N[C@@H](CC(C)C)C(N)=O)[C@@H](C)CC) [compound 200]”: the “Enhanced LY permeability” value with CaCo2 monolayers [1] was “−”. Moreover, the “Reduced TEER” value with CaCo2 monolayers [2] was “−”.
Regarding “201 (R[AllylGly]IGRL-NH2; N-terminus assumed; SMILES C=CC[C@H](NC(=O)[C@@H](N)CCCNC(=N)N)C(=O)N[C@H](C(=O)NCC(=O)N[C@@H](CCCNC(=N)N)C(=O)N[C@@H](CC(C)C)C(N)=O)[C@@H](C)CC) [compound 201]”, in the data set on CaCo2 monolayers [1], the “Enhanced LY permeability” value is listed as “−”. Further, the “Reduced TEER” value with CaCo2 monolayers [2] is given as “−”.
As to “202 (I[AllylGly]IGRL-NH2; N-terminus assumed; SMILES C=CC[C@H](NC(=O)[C@@H](N)[C@@H](C)CC)C(=O)N[C@H](C(=O)NCC(=O)N[C@@H](CCCNC(=N)N)C(=O)N[C@@H](CC(C)C)C(N)=O)[C@@H](C)CC) [compound 202]”, the “Enhanced LY permeability” value with CaCo2 monolayers [1] was “−”. Moreover, in the data set with CaCo2 monolayers [2], the “Reduced TEER” value was “−”.
“203 (F[AllylGly]PGRL-NH2; N-terminus assumed; SMILES C=CC[C@H](NC(=O)[C@@H](N)Cc1ccccc1)C(=O)N1CCC[C@H]1C(=O)NCC(=O)N[C@@H](CCCNC(=N)N)C(=O)N[C@@H](CC(C)C)C(N)=O) [compound 203]”: in the data set with CaCo2 monolayers [1], the “Enhanced LY permeability” value is “−”. The “Reduced TEER” value with CaCo2 monolayers [2] is on record as “−”.
Turning to “204 (F[AllylGly]FGRL-NH2; N-terminus assumed; SMILES C=CC[C@H](NC(=O)[C@@H](N)Cc1ccccc1)C(=O)N[C@@H](Cc1ccccc1)C(=O)NCC(=O)N[C@@H](CCCNC(=N)N)C(=O)N[C@@H](CC(C)C)C(N)=O) [compound 204]”, the “Enhanced LY permeability” value with CaCo2 monolayers [1] is given as “+”. The “Reduced TEER” value in the data set on CaCo2 monolayers [2] is reported as “=”.
The matching figures for “205 (F[AllylGly]TGRL-NH2; N-terminus assumed; SMILES C=CC[C@H](NC(=O)[C@@H](N)Cc1ccccc1)C(=O)N[C@H](C(=O)NCC(=O)N[C@@H](CCCNC(=N)N)C(=O)N[C@@H](CC(C)C)C(N)=O)[C@@H](C)O) [compound 205]”: “−” and “−”.
Taken in the same sequence, the figures for “206 (F[AllylGly]LGRL-NH2; N-terminus assumed; SMILES C=CC[C@H](NC(=O)[C@@H](N)Cc1ccccc1)C(=O)N[C@@H](CC(C)C)C(=O)NCC(=O)N[C@@H](CCCNC(=N)N)C(=O)N[C@@H](CC(C)C)C(N)=O) [compound 206]” were “+” and “+”.
In the case of “207 (F[AllylGly]SGRL-NH2; N-terminus assumed; SMILES C=CC[C@H](NC(=O)[C@@H](N)Cc1ccccc1)C(=O)N[C@@H](CO)C(=O)NCC(=O)N[C@@H](CCCNC(=N)N)C(=O)N[C@@H](CC(C)C)C(N)=O) [compound 207]”, in the data set with CaCo2 monolayers [1], the “Enhanced LY permeability” value is given as “+”. Moreover, in the data set with CaCo2 monolayers [2], the “Reduced TEER” value is “+”.
For the compound “208 (F[AllylGly]FGRL-NH2; N-terminus assumed; SMILES C=CC[C@H](NC(=O)[C@@H](N)Cc1ccccc1)C(=O)N[C@@H](Cc1ccccc1)C(=O)NCC(=O)N[C@@H](CCCNC(=N)N)C(=O)N[C@@H](CC(C)C)C(N)=O) [compound 208]”, the “Enhanced LY permeability” value with CaCo2 monolayers [1] is reported as “+”. The “Reduced TEER” value in the data set on CaCo2 monolayers [2] is on record as “+”.
In the case of “209 (F[AllylGly]VGRL-NH2; N-terminus assumed; SMILES C=CC[C@H](NC(=O)[C@@H](N)Cc1ccccc1)C(=O)N[C@H](C(=O)NCC(=O)N[C@@H](CCCNC(=N)N)C(=O)N[C@@H](CC(C)C)C(N)=O)C(C)C) [compound 209]”, the “Enhanced LY permeability” value in the data set on CaCo2 monolayers [1] is reported as “−”. For the same compound, the “Reduced TEER” value in the data set on CaCo2 monolayers [2] was “−”.
Regarding “210 (F[AllylGly]GGRL-NH2; N-terminus assumed; SMILES C=CC[C@H](NC(=O)[C@@H](N)Cc1ccccc1)C(=O)NCC(=O)NCC(=O)N[C@@H](CCCNC(=N)N)C(=O)N[C@@H](CC(C)C)C(N)=O) [compound 210]”, in the data set with CaCo2 monolayers [1], the “Enhanced LY permeability” value is “+”. The “Reduced TEER” value in the data set on CaCo2 monolayers [2] is recorded as “+”.
Consider “211 (F[AllylGly]AGRL-NH2; N-terminus assumed; SMILES C=CC[C@H](NC(=O)[C@@H](N)Cc1ccccc1)C(=O)N[C@@H](C)C(=O)NCC(=O)N[C@@H](CCCNC(=N)N)C(=O)N[C@@H](CC(C)C)C(N)=O) [compound 211]”, for which, in the data set on CaCo2 monolayers [1], the “Enhanced LY permeability” value is recorded as “+”. In addition, in the data set with CaCo2 monolayers [2], the “Reduced TEER” value is “+”.
“220 (F[AllylGly]ITRL-NH2; N-terminus assumed; SMILES C=CC[C@H](NC(=O)[C@@H](N)Cc1ccccc1)C(=O)N[C@H](C(=O)N[C@H](C(=O)N[C@@H](CCCNC(=N)N)C(=O)N[C@@H](CC(C)C)C(N)=O)[C@@H](C)O)[C@@H](C)CC) [compound 220]”: the “Enhanced LY permeability” value in the data set on CaCo2 monolayers [1] was “−”. In addition, the “Reduced TEER” value in the data set with CaCo2 monolayers [2] is on record as “−”.
With “223 (F[AllylGly]IARL-NH2; N-terminus assumed; SMILES C=CC[C@H](NC(=O)[C@@H](N)Cc1ccccc1)C(=O)N[C@H](C(=O)N[C@@H](C)C(=O)N[C@@H](CCCNC(=N)N)C(=O)N[C@@H](CC(C)C)C(N)=O)[C@@H](C)CC) [compound 223]”, in the data set with CaCo2 monolayers [1], the “Enhanced LY permeability” value is “+”. Moreover, the “Reduced TEER” value with CaCo2 monolayers [2] was “+”.
Take “224 (F[AllylGly]IPRL-NH2; N-terminus assumed; SMILES C=CC[C@H](NC(=O)[C@@H](N)Cc1ccccc1)C(=O)N[C@H](C(=O)N1CCC[C@H]1C(=O)N[C@@H](CCCNC(=N)N)C(=O)N[C@@H](CC(C)C)C(N)=O)[C@@H](C)CC) [compound 224]”: the “Enhanced LY permeability” value with CaCo2 monolayers [1] is “−”. Also, the “Reduced TEER” value in the data set on CaCo2 monolayers [2] is listed as “−”.
On to `CC[C@H](C)[C@H](NC(=O)[C@H](CS)NC(=O)[C@@H](N)Cc1ccccc1)C(=O)NCC(=O)N[C@@H](CCCNC(=N)N)C(=O)N[C@@H](CC(C)C)C(=O)O` [SEQ ID NO: 1, Phe-Cys-Ile-Gly-Arg-Leu] (H-FCIGRL-OH; N-terminus and C-terminus assumed), for which, in the data set on CaCo2 monolayers [1] (compared to vehicle alone), the “enhancement of Lucifer Yellow permeability through CaCo2 monolayers” value is 51 fold. Also, the “decrease in TEER across CaCo2 monolayers” value with CaCo2 monolayers [2] (compared to vehicle alone) is given as 16 fold.
